Values after ≈ are worked out from the molar mass of the structure shown.
Key:
[1] = target: T1, Kinase A and SpoOF (Bacillus subtilis, UniProt P16497); test: Autophosphorylation of Kinase A and Transphosphorylation of SPoOF Assay; format: biochemical; details: inhibition of Kinase A autophosphorylation / SpoOF transphosphorylation, [32P]ATP, gel, phosphoimager
T1 sequence (P16497 1-606): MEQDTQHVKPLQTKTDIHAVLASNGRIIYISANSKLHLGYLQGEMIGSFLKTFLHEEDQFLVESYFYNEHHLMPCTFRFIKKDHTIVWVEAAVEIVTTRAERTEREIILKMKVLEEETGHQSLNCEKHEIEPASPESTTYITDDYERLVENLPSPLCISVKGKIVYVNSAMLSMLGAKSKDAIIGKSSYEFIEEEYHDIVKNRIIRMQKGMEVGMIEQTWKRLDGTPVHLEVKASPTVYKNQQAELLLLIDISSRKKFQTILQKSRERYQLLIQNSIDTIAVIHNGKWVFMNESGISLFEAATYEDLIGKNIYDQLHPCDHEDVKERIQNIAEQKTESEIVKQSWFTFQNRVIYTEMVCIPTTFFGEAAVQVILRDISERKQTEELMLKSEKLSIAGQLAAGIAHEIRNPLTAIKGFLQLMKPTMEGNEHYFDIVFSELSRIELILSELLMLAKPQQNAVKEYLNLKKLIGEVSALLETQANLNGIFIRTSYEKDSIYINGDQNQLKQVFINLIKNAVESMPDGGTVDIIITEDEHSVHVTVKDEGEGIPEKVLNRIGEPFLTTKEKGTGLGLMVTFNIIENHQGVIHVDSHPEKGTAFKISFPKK

[2] = tested on: MRSA oc2089; test: MIC, microdilution broth method (NCCLS); format: cell-based; details: cation supplemented Mueller Hinton broth, 35° C., 16-20 hours; unit assumed
Procedure: (§1) The in vitro antimicrobial spectrum of the compounds of the present invention were determined by the microdilution broth method following the test method from the National Committee for […] (NCCLS ). The method is described in the NCCLS Document M7-A2, Vol. 10, No.8 "Methods for Dilution Antimicrobial Susceptibility Test for Bacteria that Grow Aerobically--Second Edition".
(§2) In this method two fold serial dilutions of drug in cation supplemented Mueller Hinton broth are added to wells in microdilution trays. The test organisms are prepared by adjusting the turbidity of actively growing broth cultures so that the final concentration of test organism after it is added to the wells is approximately 5×10^4 colony forming units per well delivered by the Steers replicating device.
(§3) Following inoculation of the microdilution trays, the trays are incubated at 35° C. for 16-20 hours and then read. […] The amount of growth in the wells containing the test compound is compared with the amount of growth in the growth-control wells used in each tray.

[3] = tested on: E. coli oc2530; test: MIC, microdilution broth method (NCCLS); format: cell-based; details: cation supplemented Mueller Hinton broth, 35° C., 16-20 hours; unit assumed
Procedure: as §1, §2, §3

[4] = tested on: E. faecium oc2993; test: MIC, microdilution broth method (NCCLS); format: cell-based; details: cation supplemented Mueller Hinton broth, 35° C., 16-20 hours; unit assumed
Procedure: as §1, §2, §3

[5] = tested on: MRSA oc667; test: MIC, microdilution broth method (NCCLS); format: cell-based; details: cation supplemented Mueller Hinton broth, 35° C., 16-20 hours; unit assumed
Procedure: as §1, §2, §3

[6] = tested on: E. faecalis oc3041; test: MIC, microdilution broth method (NCCLS); format: cell-based; details: cation supplemented Mueller Hinton broth, 35° C., 16-20 hours; unit assumed
Procedure: as §1, §2, §3

[7] = tested on: Ps. aerug. oc27853; test: MIC, microdilution broth method (NCCLS); format: cell-based; details: cation supplemented Mueller Hinton broth, 35° C., 16-20 hours; unit assumed
Procedure: as §1, §2, §3

[8] = tested on: E. coli oc2605; test: MIC, microdilution broth method (NCCLS); format: cell-based; details: cation supplemented Mueller Hinton broth, 35° C., 16-20 hours; unit assumed
Procedure: as §1, §2, §3

[9] = tested on: A. niger 10578; test: MIC, microdilution broth method (NCCLS); format: cell-based; details: cation supplemented Mueller Hinton broth, 35° C., 16-20 hours; unit assumed
Procedure: as §1, §2, §3

[10] = tested on: K. pneum. oc1943; test: MIC, microdilution broth method (NCCLS); format: cell-based; details: cation supplemented Mueller Hinton broth, 35° C., 16-20 hours; unit assumed
Procedure: as §1, §2, §3

[11] = tested on: Ps. aerug. oc161; test: MIC, microdilution broth method (NCCLS); format: cell-based; details: cation supplemented Mueller Hinton broth, 35° C., 16-20 hours; unit assumed
Procedure: as §1, §2, §3

[12] = tested on: C. tropicalis; test: MIC, microdilution broth method (NCCLS); format: cell-based; details: cation supplemented Mueller Hinton broth, 35° C., 16-20 hours; unit assumed
Procedure: as §1, §2, §3

[13] = tested on: E. faecalis ACTCC 29212; test: MIC, microdilution broth method (NCCLS); format: cell-based; details: cation supplemented Mueller Hinton broth, 35° C., 16-20 hours; unit assumed
Procedure: as §1, §2, §3

[14] = tested on: C. albicans 10231; test: MIC, microdilution broth method (NCCLS); format: cell-based; details: cation supplemented Mueller Hinton broth, 35° C., 16-20 hours; unit assumed
Procedure: as §1, §2, §3

[15] = tested on: S. aureus ATCC 29213; test: MIC, microdilution broth method (NCCLS); format: cell-based; details: cation supplemented Mueller Hinton broth, 35° C., 16-20 hours; unit assumed
Procedure: as §1, §2, §3

[16] = tested on: S. epi oc2603; test: MIC, microdilution broth method (NCCLS); format: cell-based; design: unit not given here; details: cation supplemented Mueller Hinton broth, 35° C., 16-20 hours
Procedure: as §1, §2, §3

SMILES	IC50 [1] [mM]	IC min [1] [mM]	MIC MRSA oc2089 [2] [µg/mL]	MIC E. coli oc2530 [3] [µg/mL]	MIC E. faecium oc2993 [4] [µg/mL]	MIC MRSA oc667 [5] [µg/mL]	MIC E. faecalis oc3041 [6] [µg/mL]	MIC Ps. aerug. oc27853 [7] [µg/mL]	MIC E. coli oc2605 [8] [µg/mL]	MIC A. niger 10578 [9] [µg/mL]	MIC K. pneum. oc1943 [10] [µg/mL]	MIC Ps. aerug. oc161 [11] [µg/mL]	MIC C. tropicalis [12] [µg/mL]	MIC E. faecalis ACTCC 29212 [13] [µg/mL]	MIC C. albicans 10231 [14] [µg/mL]	MIC S. aureus ATCC 29213 [15] [µg/mL]	MIC S. epi oc2603 [16]
COc1ccc(CC2(CCOc3ccc(CCN)cc3)C=CCCC2)cc1 (stereo not shown) [Compound 41]	82.5	31.25	8 (≈ 21.9 µM)	4 (≈ 10.9 µM)	8 (≈ 21.9 µM)	8 (≈ 21.9 µM)	8 (≈ 21.9 µM)	> 128	> 64	2 (≈ 5.47 µM)	> 128	> 128	4 (≈ 10.9 µM)	8 (≈ 21.9 µM)	8 (≈ 21.9 µM)	8 (≈ 21.9 µM)	8
COc1ccc(CC2(CCOc3ccc(CCCNC(=N)N)cc3)C=CCCC2)cc1 (stereo not shown) [Compound 53]	113	–	4 (≈ 9.49 µM)	16 (≈ 38 µM)	8 (≈ 19 µM)	8 (≈ 19 µM)	8 (≈ 19 µM)	> 128	> 64	8 (≈ 19 µM)	> 128	> 128	2 (≈ 4.74 µM)	4 (≈ 9.49 µM)	4 (≈ 9.49 µM)	4 (≈ 9.49 µM)	8
NCCCc1cnc(NCCC2(Cc3ccccc3)C=CCCC2)nc1 (stereo not shown) [Compound 49]	162	–	32 (≈ 91.3 µM)	16 (≈ 45.6 µM)	32 (≈ 91.3 µM)	32 (≈ 91.3 µM)	32 (≈ 91.3 µM)	128 (≈ 365 µM)	128 (≈ 365 µM)	16 (≈ 45.6 µM)	128 (≈ 365 µM)	128 (≈ 365 µM)	16 (≈ 45.6 µM)	32 (≈ 91.3 µM)	32 (≈ 91.3 µM)	64 (≈ 183 µM)	16

From patent US5753715A, “2-disubstituted cyclohexenyl and cyclohexyl antimicrobial agents” (Ortho Pharmaceutical Corporation, priority 1995, dated 1998)
